From article PMC5125662, “The Open Form Inducer Approach for Structure-Based Drug Design” (PLoS ONE, 2016)
Like-named read-outs stand apart in the source and are kept apart here.

Assays:
[1] = molecular target: T1, TcDHODH (Trypanosoma cruzi, UniProt Q4D3W2); assay: biochemical; conditions: for IC50: 500 μM L-dihydroorotate, 2 mM fumarate, pH 8.0; for Ki: read-out: TcDHODH Ki^app
T1 construct: made in house
T1 sequence (Q4D3W2 1-314): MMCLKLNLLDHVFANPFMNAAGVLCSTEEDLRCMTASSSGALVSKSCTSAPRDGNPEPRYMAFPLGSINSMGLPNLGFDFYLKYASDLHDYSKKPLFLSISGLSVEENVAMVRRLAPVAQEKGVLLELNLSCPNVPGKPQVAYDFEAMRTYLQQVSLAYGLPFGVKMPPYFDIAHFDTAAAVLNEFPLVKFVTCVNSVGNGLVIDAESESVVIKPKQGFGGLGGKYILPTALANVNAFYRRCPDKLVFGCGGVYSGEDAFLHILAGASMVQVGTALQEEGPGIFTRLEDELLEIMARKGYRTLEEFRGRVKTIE

[2] = set-up: method as in earlier work; conditions: cited from earlier work

SMILES | IC50 [1] [µM] | Ki [1] [µM] | pKa [2] | Ki ([1]; calculated from IC50 by Cheng-Prusoff equation, Km for dihydroorotate […]) [µM]
CC(C)(C)CCc1c(C(=O)O)[nH]c(=O)[nH]c1=O [Compound 1] | ≥ 400 | > 19.7 | – | –
O=C(O)c1ccc2ccccc2c1 [2-naphthoic acid] | – | – | 4.17 | –
O=C(O)c1cc(=O)[nH]c(=O)[nH]1 [ORO, orotate, reference compound] | 112 ± 21 | – | – | 5.51
